Measured values published in patent US9889104B2, “Agent for treating diabetes” (NISHIZAKI BIOINFORMATION RESEARCH INSTITUTE, priority 2014, dated 2018).

Tests used:
[1] = test system: 3T3L1-GLUT4myc adipocytes; test: Glucose uptake assay in 3T3L1-GLUT4myc adipocytes; assay type: cell-based; details: 2 hr
Protocol: (§1) 3T3L1-GLUT4myc fibroblast strain expressing GLUT4myc was used. The cells are constructed by inserting human c-MYC epitope (14 amino acids) into the first ectodomain. It is possible to track transport of GLUT4 onto cell membrane surface by using an antic-myc antibody.
The cells were cultured in Dulbecco's Modified Eagles Medium (DMEM) added with 10% (v/v) bovine serum, penicillin (final concentration, 100 U/ml) and streptomycin (final concentration, 0.1 mg/ml) in a humid environment under 5% CO2 and 95% air at 37° C. […]
3T3L1-GLUT4myc adipocytes were incubated in Krebs-Ringer-HEPES buffer [136 mM NaCl, 4.7 mM KCl, 1.25 mM CaCl2, 1.25 mM MgSO4 and 20 mM HEPES, pH 7.5] containing 0.2% (w/v) bovine serum albumin (BSA) and added with 10 mM glucose at 37° C. for […]. […] ABEE-labeled glucose was detected using a fluorescence detector at an excitation wavelength 305 nm and a fluorescence wavelength 360 nm. The amount of glucose uptaken into the cells after incubation for 2 hr is calculated by subtracting the extracellular glucose concentration from the initial extracellular glucose concentration (10 mM).
3T3L1-GLUT4myc adipocytes were incubated in glucose-containing (10 mM) PBS in the presence or absence of a given concentration of DCP-LA for 2 hr, and extracellular glucose concentration was measured by HPLC. […]

GLUT4 = GLUT4 mobilization monitoring (Western blotting with anti-c-myc antibody); assay type: cell-based; details: 100 nM DCP-LA, 20 min; c-myc signal in cellular membrane fraction/total cell; FIG. 2
Protocol: as §1
The cells were cultured in Dulbecco's Modified Eagles Medium (DMEM) added with 10% (v/v) bovine serum, penicillin (final concentration, 100 U/ml) and streptomycin (final concentration, 0.1 mg/ml) in a humid environment under 5% CO2 and 95% air at 37° C. When the cells reached confluence (day 0), the medium was exchanged with DMEM added with 10% (v/v) fetal bovine serum (FBS), 1 μM dexamethasone, 0.5 mM 3-isobutyl-methyl-xanthine and 0.1 mg/ml insulin to allow for differentiation from fibroblast into adipocyte. The medium was exchanged with DMEM added with 10% (v/v) FBS on day 3, day 7 and day 11. On day 14, the cell differentiated into adipocyte were used for the experiment. […]
The protein concentration of each fraction was measured using BCA protein assay kit (Thermo Fisher Scientific, Waltham, Mass., USA). […] The immunoreactivity was detected using ECL kit (Invitrogen), and visualized using a chemical luminescence detection system (chemiluminescence detection system; GE Healthcare, Piscataway, N.J., USA). The signal density was measured using an image analysis software (Image Gauge software; GE Healthcare). […]

[2] = test system: type 1 diabetes model mouse (STZ-treated C57BL/6J mouse); test: Oral glucose tolerance test in type 1 diabetes model mouse; assay type: in vivo; details: DCP-LA 0.001, 0.01, 0.1 mg/kg orally 30 min before glucose 2 g/kg, 0-90 min, FIG. 3A
Protocol: Type 1 diabetes model mouse was prepared by intraperitoneal administration of streptozotocin (STZ; 250 mg/kg) to C57BL/6J mouse (8-week-old) (Japan SLC Inc.; Shizuoka, Japan). After 4 days from the STZ administration, an oral glucose tolerance test (OGTT) was performed.
(§2) OGTT was performed using the mouse starved for 12 hr. Glucose (2 g/ml/kg body weight) was administered by gavage, and the time point thereof was taken as 0 h. DCP-LA (0, 0.001, 0.01, 0.1 mg/kg) was orally administered 30 min before administration of glucose. The blood (10 μl) was collected from the tail vein at the time points of 0, 30, 60, and 90 min, and each plasma sample which was labeled with ABEE and prepared from the obtained blood was loaded on high performance liquid chromatography (HPLC) system (LC-10ATvp; Shimadzu Co., Kyoto, Japan). The glucose concentration was calculated from a peak area/concentration analytical curve prepared using the standard glucose solution.

[3] = test system: type 2 diabetes model mouse (C57BL/KsJ-lepr^db/lepr^db mouse); test: Oral glucose tolerance test in type 2 diabetes model mouse; assay type: in vivo; details: DCP-LA 0.001, 0.01, 0.1 mg/kg orally 30 min before glucose 2 g/kg, 0-90 min, FIG. 3B
Protocol: As type 2 diabetes model mouse, C57BL/KsJ-lepr^db/lepr^db mouse (female, 8-week-old) (CLEA Japan; Tokyo, Japan) was used.
as §2

SMILES: CCCCCC1CC1CC1CC1CCCCCCCC(=O)O (centres unmarked) [DCP-LA, 8-[2-(2-pentyl-cyclopropylmethyl)-cyclopropyl]-octanoic acid]
- sugar uptake promoting action in the presence of PKCε inhibitor GF109203X ([1]; 0.1 μM DCP-LA with 0.1 μM GF109203X, FIG. 1B): not inhibited
- glucose uptake into the cells ([1]; 3T3L1-GLUT4myc adipocytes, 10 mM glucose PBS, given concentrations of DCP-LA, HPLC, FIG. 1A): promote sugar uptake into the adipocytes in a bell-shaped concentration-dependent manner
- transport of GLUT4 onto the cellular membrane (GLUT4): not promoted significantly
- blood glucose level [2]: dose-dependently lower the blood glucose level
- blood glucose level [3]: dose-dependently lower the blood glucose level
